# Results taken from US20240316146A1, “METHODS OF REDUCING NEUROPATHY AND NEUROPATHIC SYMPTOMS AND TREATING CANCER” (Bexion Pharmaceuticals Inc., priority 2021, published 2024).
# Several values for one entry are separate records, joined by “and”; a condition that tells them apart may be missing. Equal entries are not always repeated.
# How the values were obtained:
# [1] = Body weights, Study 2; assay type: in vivo, mouse; conditions: Group B Oxaliplatin/Vehicle, individual mice
# From the text: Body Weights: The mice were weighed daily starting 1 day prior to treatment through day 9.
# [2] = system: mouse oxaliplatin model of chemotherapy-induced neuropathy; assay: Thermal hypersensitivity, cold plate test 15° C., Study 1; assay type: in vivo
# Description: (§1) 60 adult male C57/BL6 mice (Charles River), 6-7 weeks of age, were housed in groups of 5 in Perspex cages, in a controlled environment of constant temperature and humidity (temperature: 21±1° C., light: dark cycle of 12:12 hours), with food and water available ad libitum. Animals were allowed to recover from transportation for at least one week before commencing experiments.
# (§2) Thermal hypersensitivity: Thermal hypersensitivity was assessed using a dynamic cold plate (Bioseb, France) set at a fixed temperature of 15° C. This method allows analysis of more integrated behaviors rather than reflex behaviors, e.g., the tail immersion test. In animal studies, thermal sensitivity is mostly evaluated based on nociceptive reaction latencies in response to a given thermal aversive stimulus. In this classical test, the temperature of the plate is fixed and remains constant: the latency to the first paw licking, jumps or withdrawal is taken as an index of nociceptive threshold. […] The results of the study are shown in Table 5 (raw data) below, Table 6 (summary) below, FIG. 4, and FIG. 5.
# Warm vials of BQX-350 were brought to room temperature and reconstituted with 4 mL water for injection via syringe. The vials were gently agitated and/or vortexed for 15-20 sec and allowed to sit at room temp for 5 mins. The rehydrated solution contained 2.2 mg/mL SapC (8.8 mg SapC per vial). About […] of the formulation was injected to achieve a target dose of 20 mg/kg in each mouse. Pregabalin was reconstituted in water and injected to achieve a target dose of 30 mg/kg in each mouse.
# A two-way repeated measures ANOVA with ‘treatment’ as a between subjects effect, and ‘day’ as a within subjects effect was used (using GraphPad Prism version 9.0 for Windows, GraphPad Software, San Diego California USA), followed by Dunnett's multi comparisons test. Data is presented as mean±SEM.
# [3] = system: mouse oxaliplatin model of chemotherapy-induced neuropathy; assay: Static mechanical (tactile) allodynia, von Frey filaments, Study 2; assay type: in vivo; conditions: Study 2; oxaliplatin treated mice, days assessed; BXQ-350 2 and 10 mg/kg
# Description: Static mechanical tactile allodynia: Static mechanical (tactile) allodynia was assessed by measurement of withdrawal threshold using calibrated (force; g) von-Frey monofilaments (Touch-Test Sensory Evaluator; Scientific Marketing Associates) applied to the plantar surface of the left hind-paw. The animals were placed in individual Perspex boxes on a raised metal mesh for 30-40 min before the test to habituate. A series of graduated von Frey hairs (0.07, 0.16, 0.4, 0.6 and 1 g) were applied in sequence with a protocol of 1 sec on 1 sec off repeated 10 times. Each hair was applied perpendicularly to the center of the ventral surface of the paw until it bent slightly. The force applied to the hind-paw of the animal to induce 5 responses out of 10 trials was recorded as paw withdrawal threshold (PWT) 50%.
# as §1
# Static mechanical tactile allodynia: The same apparatus and protocol were used as for Study 1.
# [4] = system: mouse oxaliplatin model of chemotherapy-induced neuropathy; assay: Thermal hypersensitivity, cold plate test, Study 2; conditions: Group B Oxaliplatin/Vehicle; for Latency to withdrawal behaviour in the cold plate test (15° C.): N 12
# Description: as §2, §1
# Thermal hypersensitivity: The same apparatus and protocol were used as for Study 1. The results of Study 2 are shown in Table 11 (raw data), Table 12 (summary), FIG. 8, and FIG. 9.
# [5] = system: PC-12 cells; assay: Viable cell counts, PC-12 cells; assay type: cell-based, rat; conditions: for cell viability (in words): 2 μM oxaliplatin alone
# Description: The neurostimulatory, neuroprotective, and neurotrophic qualities of the SapC-phospholipid formulation (BXQ-350) were tested in vitro in two cell lines, i.e., PC-12 cells (derived from a pheochromocytoma of a rat adrenal medulla) and NS20Y cells (cholinergic cell line derived from a mouse neuroblastoma).
# PC-12 cells (ATCC, catalogue number CRL-1721) and NS20Y cells (Millipore Sigma, catalogue number 08062517) were seeded overnight in 24-well plates containing 1×10^4 cells per well in 1 mL of DMEM (Gibco, catalog number 11965-092) supplemented with 10% FBS and PenStrep. Each agent tested was brought to solution, at its appropriate concentrations, in a dosing media consisting of high glucose, no glutamine, no calcium DMEM (Gibco, catalog number 21068-028) supplemented with 4 mM glutamine, 1 mM calcium gluconate and PenStrep. […] The seeding medium was completely removed from the cells before the dosing medium containing the testing agents was added.
# PC-12 cells (ATCC, catalogue number CRL-1721) and NS20Y cells (Millipore Sigma, catalogue number 08062517) were seeded overnight in 24-well plates containing 1×10^4 cells per well in 1 mL of DMEM (Gibco, catalog number 11965-092) supplemented with 10% FBS and PenStrep. Each agent tested was brought to solution, at its appropriate concentrations, in a dosing media consisting of high glucose, no glutamine, no calcium DMEM (Gibco, catalog number 21068-028) supplemented with 4 mM glutamine, 1 mM calcium gluconate and PenStrep. BXQ-350 was tested at concentrations between 5 nM and 1 μM concentration of SapC. The seeding medium was completely removed from the cells before the dosing medium containing the testing agents was added.
# The viability of the cytotoxic drug+BXQ-350 combination groups was about 50% of the BXQ-350 alone group.
# [6] = cold plate 15° C., oxaliplatin 10 mg/kg IP day 0 (+vehicle, BXQ-350 20 mg/kg IP or pregabalin 30 mg/kg IP), group mean
compound,measurement,setting,value
"O=C([O-])C(=O)[O-].[NH-][C@@H]1CCCC[C@H]1[NH-].[Pt+4] (relative stereo) [Oxaliplatin, cis-[(1R,2R)-1,2-cyclohexanediamine-N,N′][oxalato(2)-O,O′] platinum]",Individual body weights,[1]; D 0,26.0 g (2×) and 22.4 g and 23.6 g (2×) and 23.1 g and 24.5 g (2×) and 23.2 g and 24.6 g and 21.9 g and 26.1 g
same,Individual body weights,[1]; D 1,24.9 g (2×) and 21.1 g and 23.5 g (2×) and 22.5 g and 23.9 g and 23.7 g and 22.9 g and 23.0 g and 20.8 g and 25.4. g
same,Individual body weights,[1]; D 2,24.8 g and 21.3 g and 23.2 g (2×) and 22.3 g and 24.6 g and 23.8 g (2×) and 23.0 g and 23.6 g and 21.0 g and 25.0 g
same,Individual body weights,[1]; D 3,24.1 g and 22.4 g (2×) and 22.7 g and 22.2 g (2×) and 23.7 g and 23.0 g (2×) and 22.1 g and 20.6 g and 24.4 g
same,Individual body weights,[1]; D 4,25.0 g (2×) and 23.5 g (3×) and 23.1 g (2×) and 22.6 g and 23.7 g and 22.7 g and 21.3 g and 24.8 g
same,Individual body weights,[1]; D 5,25.2 g and 23.8 g and 22.8 g (2×)
same,Individual body weights,[1]; D −1,25.3 g and 21.8 g and 23.6 g and 22.9 g (3×) and 25.5 g and 23.8 g and 24.1 g and 24.3 g and 21.6 g and 26.1 g
same,Individual body weights,[1]; D −2,25.4 g (2×) and 21.9 g and 23.8 g (2×) and 23.3 g and 23.9 g and 23.0 g and 23.5 g and 24.1 g and 21.8 g and 25.2 g
same,Individual body weights,[1]; D −3,26.0 g (2×) and 22.0 g (2×) and 24.0 g (4×) and 23.0 g (2×) and 25.0 g (2×)
same,Latency (s) Baseline,[2]; [6],54.717 s
same,Latency (s) D 3,[2]; [6],25.583 s
same,Latency (s) D 5,[2]; [6],28.567 s
same,Latency (s) D 7,[2]; [6],32.475 s
same,Latency (s) D 9,[2]; [6],22.050 s
same,Individual latency to displaying withdrawal behaviour in the cold plate test,"[2]; oxaliplatin 10 mg/kg IP day 0 (+vehicle, BXQ-350 20 mg/kg IP or pregabalin 30 mg/kg IP), Baseline, individual mice",45.4 s and 59.0 s and 48.3 s and 65.5 s and 80.0 s and 54.3 s and 46.2 s and 46.7 s and 46.5 s and 58.8 s and 48.6 s and 57.6 s
same,Individual latency to displaying withdrawal behaviour in the cold plate test,"[2]; oxaliplatin 10 mg/kg IP day 0 (+vehicle, BXQ-350 20 mg/kg IP or pregabalin 30 mg/kg IP), Day 3, individual mice",22.9 s and 19.5 s and 25.9 s and 24.2 s and 30.2 s and 15.0 s and 31.3 s and 34.1 s and 22.0 s and 24.3 s and 35.5 s and 22.1 s
same,Individual latency to displaying withdrawal behaviour in the cold plate test,"[2]; oxaliplatin 10 mg/kg IP day 0 (+vehicle, BXQ-350 20 mg/kg IP or pregabalin 30 mg/kg IP), Day 5, individual mice",30.3 s and 27.7 s and 39.8 s and 17.3 s and 31.1 s and 38.3 s and 24.5 s and 18.5 s and 16.0 s and 30.1 s and 33.9 s
same,Individual latency to displaying withdrawal behaviour in the cold plate test,"[2]; oxaliplatin 10 mg/kg IP day 0 (+vehicle, BXQ-350 20 mg/kg IP or pregabalin 30 mg/kg IP), Day 7, individual mice",16.8 s and 45.9 s and 49.6 s and 37.6 s and 24.3 s and 28.8 s and 18.6 s and 23.0 s and 62.9 s and 31.8 s and 21.5 s and 28.9 s
same,Individual latency to displaying withdrawal behaviour in the cold plate test,"[2]; oxaliplatin 10 mg/kg IP day 0 (+vehicle, BXQ-350 20 mg/kg IP or pregabalin 30 mg/kg IP), Day 9, individual mice",12.6 s and 13.6 s and 24.8 s and 23.1 s and 31.8 s and 20.9 s and 17.4 s and 25.0 s and 10.6 s and 19.4 s and 25.8 s
same,"thermal (cold) sensitivity, cold plate test (in words)","[2]; oxaliplatin treated animals, day 3 to day 9, BXQ-350 20 mg/kg, pregabalin 30 mg/kg 2 hours before assessment",increased thermal (cold) sensitivity
same,paw withdrawal threshold (PWT) levels (in words),[3],induced consistent and persistent mechanical allodynic response
same,Individual latency to displaying withdrawal behaviour in the cold plate test,"[4]; oxaliplatin 10 mg/kg i.p. day 0, D 3, individual mice",18.8 s and 69.3 s and 84.0 s and 28.0 s and 19.9 s and 34.2 s and 36.8 s and 23.9 s and 77.7 s and 54.5 s
same,Latency to withdrawal behaviour in the cold plate test (15° C.),"[4]; oxaliplatin 10 mg/kg i.p. day 0, D3, mean (SEM)",42.933 + s
same,Individual latency to displaying withdrawal behaviour in the cold plate test,"[4]; oxaliplatin 10 mg/kg i.p. day 0, D 5, individual mice",29.8 s and 12.7 s and 28.7 s and 18.6 s and 13.1 s and 25.5 s and 33.8 s and 17.4 s and 47.1 s and 16.4 s and 11.8 s and 43.8 s
same,Latency to withdrawal behaviour in the cold plate test (15° C.),"[4]; oxaliplatin 10 mg/kg i.p. day 0, D5, mean (SEM)",24.888 ? s
same,Individual latency to displaying withdrawal behaviour in the cold plate test,"[4]; oxaliplatin 10 mg/kg i.p. day 0, D 7, individual mice",13.7 s and 22.3 s and 7.4 s and 28.4 s and 4.8 s and 23.9 s and 26.1 s and 29.6 s and 23.2 s and 26.3 s and 12.7 s and 44.2 s
same,Latency to withdrawal behaviour in the cold plate test (15° C.),"[4]; oxaliplatin 10 mg/kg i.p. day 0, D7, mean (SEM)",21.883 + s
same,Individual latency to displaying withdrawal behaviour in the cold plate test,"[4]; oxaliplatin 10 mg/kg i.p. day 0, D 9, individual mice",25.2 s and 23.9 s and 39.0 s and 17.2 s and 18.4 s and 23.0 s and 35.0 s and 23.8 s and 12.7 s and 30.6 s and 6.4 s and 33.2 s
same,Latency to withdrawal behaviour in the cold plate test (15° C.),"[4]; oxaliplatin 10 mg/kg i.p. day 0, D9, mean (SEM)",24.033 + s
same,Individual latency to displaying withdrawal behaviour in the cold plate test,"[4]; oxaliplatin 10 mg/kg i.p. day 0, D −1, individual mice",26.1 s and 32.9 s and 45.8 s and 42.4 s and 24.4 s and 53.7 s and 64.3 s and 91.7 s and 31.2 s and 45.0 s and 37.0 s and 33.4 s
same,Latency to withdrawal behaviour in the cold plate test (15° C.),"[4]; oxaliplatin 10 mg/kg i.p. day 0, D −1, mean (SEM)",43.992 + s
same,Individual latency to displaying withdrawal behaviour in the cold plate test,"[4]; oxaliplatin 10 mg/kg i.p. day 0, D −2, individual mice",36.8 s and 63.0 s and 47.4 s and 35.8 s and 31.9 s and 42.2 s and 61.4 s and 63.3 s and 55.6 s and 41.5 s and 29.0 s and 36.7 s
same,Latency to withdrawal behaviour in the cold plate test (15° C.),"[4]; oxaliplatin 10 mg/kg i.p. day 0, D −2, mean (SEM)",45.383 + s
same,Individual latency to displaying withdrawal behaviour in the cold plate test,"[4]; oxaliplatin 10 mg/kg i.p. day 0, D −3, individual mice",29.9 s and 35.1 s and 40.1 s and 49.9 s and 24.7 s and 30.0 s and 72.0 s and 50.6 s and 67.4 s and 55.6 s
same,Latency to withdrawal behaviour in the cold plate test (15° C.),"[4]; oxaliplatin 10 mg/kg i.p. day 0, D −3, mean (SEM)",44.183 + s
same,cell viability (in words),[5],negligible cell viability
same,cell viability,[5]; 2 μM oxaliplatin alone (FIG. 12),less than 1%
same,cell viability (in words),[5]; listed as oxaliplatin,severely reduces cell viability
